The record followed here is publication PMC5467912, “Asymmetric regulation of quorum-sensing receptors drives autoinducer-specific gene expression programs in Vibrio cholerae” (PLoS Genetics, 2017).

Several values for one entry are separate records, joined by “and”; a condition that tells them apart may be missing. Equal entries are not always repeated.

Assay [1] concerns the target T1, CqsS (Vibrio cholerae serotype O1, UniProt Q9KM66).
T1 construct: endogenous in cells; host or cells: V. cholerae WN1102 (ΔcqsA ΔluxQ/pBB1), derived from C6706str2
Description: cell-based. The following applies: for Light production: strain WN1102; for EC50: light production, reporter strain WN1102, 4 h at 30 °C; for RLU: Strain WN1102.

In assay [2] the test system is qrr4. The format is cell-based. The following applies: LuxS-CqsA- strain + autoinducer; Rep 1-3.

T1 sequence (Q9KM66 whole entry, looked up): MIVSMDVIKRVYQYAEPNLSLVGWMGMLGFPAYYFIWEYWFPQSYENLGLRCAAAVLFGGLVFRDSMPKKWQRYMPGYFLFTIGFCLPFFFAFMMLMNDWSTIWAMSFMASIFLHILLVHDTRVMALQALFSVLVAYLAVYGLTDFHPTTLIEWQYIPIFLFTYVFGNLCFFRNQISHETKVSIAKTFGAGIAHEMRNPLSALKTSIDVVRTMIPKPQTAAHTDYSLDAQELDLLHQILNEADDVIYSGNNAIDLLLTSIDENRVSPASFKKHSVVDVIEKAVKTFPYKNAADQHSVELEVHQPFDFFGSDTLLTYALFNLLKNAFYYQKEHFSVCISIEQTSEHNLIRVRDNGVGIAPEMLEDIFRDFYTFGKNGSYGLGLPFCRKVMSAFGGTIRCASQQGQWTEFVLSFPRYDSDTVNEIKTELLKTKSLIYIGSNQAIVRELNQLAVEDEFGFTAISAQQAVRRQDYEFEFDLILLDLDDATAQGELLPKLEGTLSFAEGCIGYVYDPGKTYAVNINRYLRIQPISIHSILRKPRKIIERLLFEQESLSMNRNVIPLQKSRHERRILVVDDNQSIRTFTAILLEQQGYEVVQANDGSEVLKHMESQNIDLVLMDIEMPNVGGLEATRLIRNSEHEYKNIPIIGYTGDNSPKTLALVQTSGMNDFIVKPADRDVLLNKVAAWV

Usually EC50 stands for the concentration giving half of the maximal effect. A high value points to lower potency in that assay. For the molecule `CCCn1nnnc1NCc1ccc(N(CC)CC)cc1` [#2], the Light production was 10481 RLU and 11875 RLU and 20274 RLU in assay [1] (Agonist 0.0119209 nM); 11765 RLU and 13923 RLU and 13822 RLU in assay [1] (Agonist 0.0476837 nM); 21584 RLU and 21176 RLU and 18763 RLU in assay [1] (Agonist 0.190735 nM); 32000 RLU and 26047 RLU and 22456 RLU in assay [1] (Agonist 0.762939 nM); 51860 RLU and 50633 RLU and 45087 RLU in assay [1] (Agonist 3.05176 nM); 312292 RLU and 263721 RLU and 253642 RLU in assay [1] (Agonist 12.207 nM). Further, the Light production is 5147778 RLU and 5005576 RLU and 4962410 RLU in assay [1] (Agonist 48.8281 nM); 29151080 RLU and 28675780 RLU and 30844170 RLU in assay [1] (Agonist 195.312 nM); 78218700 RLU and 84853010 RLU and 92706410 RLU in assay [1] (Agonist 781.25 nM); 94808130 RLU and 116685800 RLU and 113209800 RLU in assay [1] (Agonist 3125 nM); 93694120 RLU and 114540600 RLU and 119989100 RLU in assay [1] (Agonist 12500 nM); 88291390 RLU and 103481200 RLU and 109394800 RLU in assay [1] (Agonist 50000 nM). Further, the EC50 in assay [1] worked out at 26 nM.

On to `CCCn1nnnc1NCc1ccc(N2CCCC2)cc1` [#3], for which the Light production in assay [1] (Agonist 0.0476837 nM) is 13269 RLU and 14460 RLU and 11456 RLU; in assay [1] (Agonist 0.190735 nM) it was 18051 RLU and 20632 RLU and 16089 RLU; in assay [1] (Agonist 0.762939 nM), 27556 RLU and 29263 RLU and 25287 RLU; in assay [1] (Agonist 3.05176 nM) it was 53410 RLU and 57320 RLU and 53409 RLU; in assay [1] (Agonist 12.207 nM), 598613 RLU and 571778 RLU and 545574 RLU; in assay [1] (Agonist 48.8281 nM), 17729790 RLU and 16188200 RLU and 18180520 RLU. The Light production is 52331460 RLU and 53359300 RLU and 52422750 RLU in assay [1] (Agonist 195.312 nM); 72153380 RLU and 70458940 RLU and 74315090 RLU in assay [1] (Agonist 781.25 nM); 80807740 RLU and 76653980 RLU and 72594050 RLU in assay [1] (Agonist 3125 nM); 69868890 RLU and 66115120 RLU and 65607710 RLU in assay [1] (Agonist 12500 nM); 41204600 RLU and 38225840 RLU and 37314420 RLU in assay [1] (Agonist 50000 nM). In assay [1] (EC50 comparison), the “fold less potent than compound #1” value is listed as “approximately 4 fold”. In assay [1], this molecule yielded an EC50 of 14 nM.

With `CCCn1nnnc1NCc1ccc(C(C)C)cc1` [#4], the Light production in assay [1] (Agonist 0.0119209 nM) was 12293 RLU and 13200 RLU and 7500 RLU; in assay [1] (Agonist 0.0476837 nM), 18202 RLU and 15106 RLU and 14409 RLU; in assay [1] (Agonist 0.190735 nM) it was 28023 RLU and 25417 RLU and 23860 RLU; in assay [1] (Agonist 0.762939 nM), 52174 RLU and 73300 RLU and 48409 RLU; in assay [1] (Agonist 3.05176 nM), 246211 RLU and 267975 RLU and 261469 RLU; in assay [1] (Agonist 12.207 nM), 3790123 RLU and 3428043 RLU and 3340791 RLU. Further, the Light production in assay [1] (Agonist 48.8281 nM) was 19838010 RLU and 18010170 RLU and 17447160 RLU; in assay [1] (Agonist 195.312 nM), 61742000 RLU and 56850120 RLU and 54681960 RLU; in assay [1] (Agonist 781.25 nM) it was 104719700 RLU and 101045100 RLU and 95346500 RLU; in assay [1] (Agonist 3125 nM), 119868200 RLU and 118607300 RLU and 107846700 RLU; in assay [1] (Agonist 12500 nM) it was 122328400 RLU and 118368100 RLU and 108047500 RLU; in assay [1] (Agonist 50000 nM), 103497500 RLU and 101746000 RLU and 97356600 RLU. The molecule further gave an EC50 in assay [1] of 7 nM.

Consider `CCn1nnnc1NCc1ccc(C(C)C)cc1` [#5], for which the Light production in assay [1] (Agonist 0.0119209 nM) was 22342 RLU and 16526 RLU and 20189 RLU; in assay [1] (Agonist 0.0476837 nM), 18351 RLU and 14922 RLU and 16393 RLU; in assay [1] (Agonist 0.190735 nM) it was 24222 RLU and 32473 RLU and 30802 RLU; in assay [1] (Agonist 0.762939 nM) it was 43006 RLU and 46460 RLU and 51236 RLU; in assay [1] (Agonist 3.05176 nM), 215673 RLU and 187636 RLU and 197250 RLU; in assay [1] (Agonist 12.207 nM), 3692444 RLU and 3488605 RLU and 3831864 RLU. In addition, the Light production was 25448660 RLU and 29298250 RLU and 27925710 RLU in assay [1] (Agonist 48.8281 nM); 71515280 RLU and 80802780 RLU and 79358510 RLU in assay [1] (Agonist 195.312 nM); 95077870 RLU and 111974800 RLU and 120784000 RLU in assay [1] (Agonist 781.25 nM); 107051300 RLU and 126535100 RLU and 129294500 RLU in assay [1] (Agonist 3125 nM); 98996430 RLU and 113608500 RLU and 123733600 RLU in assay [1] (Agonist 12500 nM); 91459320 RLU and 107555000 RLU and 106482900 RLU in assay [1] (Agonist 50000 nM). Further, the EC50 in assay [1] was found to be 8 nM.

In the case of `c1cc(N2CCCC2)ccc1CNc1nnn[nH]1` [#6], the CqsS agonist activity result in assay [1] (S10 Fig) was “loses all activity”. For the same molecule, the RLU was 2.15E+03 RLU and 2.08E+03 RLU and 4.10E+03 RLU in assay [1] (agonist 0.762939 nM); 2.13E+03 RLU and 2.35E+03 RLU and 4.10E+03 RLU in assay [1] (agonist 12.207 nM); 2.14E+03 RLU and 2.26E+03 RLU and 4.12E+03 RLU in assay [1] (agonist 48.8281 nM); 6.45E+03 RLU and 4.19E+03 RLU and 4.17E+03 RLU in assay [1] (agonist 195.312 nM); 6.42E+03 RLU and 4.10E+03 RLU and 6.49E+03 RLU in assay [1] (agonist 50000 nM).

Consider `CCC(C)NC(=O)Cc1ccc(-c2ccccc2)cc1` (centres unmarked) [#7], for which the Light production was 14566 RLU and 10667 RLU and 7878.8 RLU in assay [1] (Agonist 0.0119209 nM); 16089 RLU and 13267 RLU and 10570 RLU in assay [1] (Agonist 0.0476837 nM); 18864 RLU and 15385 RLU and 12553 RLU in assay [1] (Agonist 0.190735 nM); 24094 RLU and 21702 RLU and 17241 RLU in assay [1] (Agonist 0.762939 nM); 32638 RLU and 25814 RLU and 24906 RLU in assay [1] (Agonist 3.05176 nM); 48047 RLU and 41582 RLU and 31818 RLU in assay [1] (Agonist 12.207 nM). Further, the Light production in assay [1] (Agonist 48.8281 nM) was 81242 RLU and 67619 RLU and 51844 RLU; in assay [1] (Agonist 195.312 nM), 183313 RLU and 159529 RLU and 160500 RLU; in assay [1] (Agonist 781.25 nM), 10770860 RLU and 8237516 RLU and 9173585 RLU; in assay [1] (Agonist 3125 nM), 90855490 RLU and 84011930 RLU and 82291170 RLU; in assay [1] (Agonist 12500 nM) it was 122744100 RLU and 104793600 RLU and 103467300 RLU; in assay [1] (Agonist 50000 nM), 104239700 RLU and 95731630 RLU and 92148540 RLU. In assay [1], this molecule had an EC50 of 403 nM.

Turning to `O=C(Cc1ccc(-c2ccccc2)cc1)NC1CCC1` [#8], the Light production was 17900 RLU and 10791 RLU and 14350 RLU in assay [1] (Agonist 0.0119209 nM); 11100 RLU and 15000 RLU and 11881 RLU in assay [1] (Agonist 0.0476837 nM); 26990 RLU and 16080 RLU and 18824 RLU in assay [1] (Agonist 0.190735 nM); 24950 RLU and 23905 RLU in assay [1] (Agonist 0.762939 nM); 48627 RLU and 40000 RLU and 32706 RLU in assay [1] (Agonist 3.05176 nM); 75176 RLU and 69890 RLU and 67191 RLU in assay [1] (Agonist 12.207 nM). Also, the Light production in assay [1] (Agonist 48.8281 nM) is 1115870 RLU and 738497 RLU and 676886 RLU; in assay [1] (Agonist 195.312 nM), 40840900 RLU and 39570670 RLU and 37676260 RLU; in assay [1] (Agonist 781.25 nM), 91907700 RLU and 100480500 RLU and 102019900 RLU; in assay [1] (Agonist 3125 nM) it was 92588910 RLU and 118830300 RLU and 113054700 RLU; in assay [1] (Agonist 12500 nM) it was 89613410 RLU and 99998040 RLU and 103728600 RLU; in assay [1] (Agonist 50000 nM) it was 78185000 RLU and 81850050 RLU and 75936470 RLU. Also, a half-maximal response in assay [1] (EC50) required 53 nM.

Consider `O=C(Cc1ccc(-c2ccccn2)cc1)NC1CCCC1` [#9], for which the Light production is 8704.7 RLU and 9014.1 RLU and 7722.8 RLU in assay [1] (Agonist 0.0119209 nM); 11317 RLU and 7830.7 RLU and 9751.2 RLU in assay [1] (Agonist 0.0476837 nM); 10595 RLU and 11217 RLU and 6363.6 RLU in assay [1] (Agonist 0.190735 nM); 13636 RLU and 11364 RLU and 8044.7 RLU in assay [1] (Agonist 0.762939 nM); 16879 RLU and 13647 RLU and 11676 RLU in assay [1] (Agonist 3.05176 nM); 22994 RLU and 16264 RLU and 15148 RLU in assay [1] (Agonist 12.207 nM). The Light production in assay [1] (Agonist 48.8281 nM) is 32335 RLU and 27200 RLU and 23011 RLU; in assay [1] (Agonist 195.312 nM), 55190 RLU and 44311 RLU and 39030 RLU; in assay [1] (Agonist 781.25 nM), 108075 RLU and 97949 RLU and 93072 RLU; in assay [1] (Agonist 3125 nM), 7362143 RLU and 7832704 RLU and 8085455 RLU; in assay [1] (Agonist 12500 nM), 55377500 RLU and 53818320 RLU and 53583010 RLU; in assay [1] (Agonist 50000 nM), 93123590 RLU and 90629940 RLU and 93211830 RLU. Besides, a half-maximal effect in assay [1] (EC50) was put at 1720 nM.

On to `CCCCCCCCCC(=O)[C@@H](O)CC` [CAI], for which the “RLU, average per biological replicate (Totals)” value in assay [2] was 2.55E+08 RLU and 2.82E+08 RLU and 3.63E+08 RLU.
